Experimental data published in US20220088103A1, “PEANUT STEM AND LEAF EXTRACT AND PREPARATION METHOD AND USE THEREOF” (INSTITUTE OF FOOD SCIENCE AND TECHNOLOGY, CHINESE ACADEMY …, priority 2019, published 2022).

test system: sleep of mice; assay: Effect on 24-hour sleep of mice (EEG and electromyograph recording); assay type: in vivo, Male Bal b/c mice; settings: standard substances dosed according to their identified contents in the extract; intragastric, D1 to D14; FIG. 3
Description: The BAL b/c mice is used as a model in the present invention, and the electrophysiological technology is adopted, wherein electrodes are implanted in the brain of the mice, and the brain wave changes of mice after drug administration is real time 24-hour monitored for 14 days, thereby determining that the functional active substances in the peanut stem and leaf extract provided by the present invention have a significant sleep promoting function.
Experiment of the effect of the peanut stem and leaf extract prepared in Example 1 on sleep of mice
The peanut stem and leaf extract prepared according to the method of Example 1 was used as an experimental drug, and the standard drugs were administered to the mice according to the identified contents of the substances such as naringenin-4,7′-dimethyl ether.
The experiment was divided into a control group, extract groups (three groups of low, medium and high doses), a positive control group and a functional factor group (four functional active substances). Male Bal b/c mice were used, 6 mice for each group.
The mice were anesthetized at abdominal cavity with chloral hydrate (4%) at 0.10 mL/10 g. After the pain reflex disappeared, the mice were fixed on a mouse brain stereotactic adapter, and the hair on the head of the mice was cut off and 75% alcohol was used to disinfect the skin, the skin was cut along the midline of the skull, and the subcutaneous tissue was separated to fully expose the skull. […] The electroencephalo-graph (EEG) electrodes were fixed on the skull with tissue glue and dental cement successively, and the EEG electrode was connected to a screw (fixed in the hole drilled on the skull) to touch the cerebral dura mater by a silver wire to record cortical EEG activity. The two silver wires connected to the myoelectric electrodes were inserted into the muscles on both sides of the neck of the mouse to record the myoelectric activity. The electrode base was then fixed to the skull with tissue glue and dental cement. Mice were injected with penicillin after surgery (measuring 80,000 units/day for three consecutive days). The mice were raised separately in a shielding box with constant temperature, constant humidity, sound insulation and electrostatic shielding function during the recovery period after surgery. The cables for recording EEG and myoelectricity were connected to the electrodes on the head of the mouse on the second day after surgery, and the mice were allowed to adapt for 7 days. […] The EEG and electromyograph of mice that recovered and adapted to the experimental environment began to be recorded from 8:00 in the morning for 24 hours, and this day was recorded as D0. […] The EEG and electromyograph were recorded on the D7 and D14, and the brain tissue was taken after gavage at 8:00 in the morning on D15.

Structure (SMILES)	sleep time of mice (24-hour sleep)
COc1cc(O)ccc1C(=O)/C=C/c1ccc(O)cc1 [2′-O-methylisoliquiritigenin]	significantly improve
COc1cc(/C=C/C(=O)O)ccc1O [ferulic acid]	significantly improve
C=CC(C)(O)CCC=C(C)C (stereo not shown) [linalool]	significantly improve
COc1ccc(C2CC(=O)c3c(O)cc(OC)cc3O2)cc1 (stereo not shown) [naringenin-4,7′-dimethyl ether]	significantly improve
